Reference: patent US9981951B2, “Crystalline and amorphous forms of Olaparib” (Olon S.P.A., priority 2015, dated 2018)

Experiments:
Assay type in all cases: physicochemical
[1] = stability of the solid form (air, moisture, heat)
hygroscopicity = experiment: hygroscopicity
[2] = solubility in various organic solvents and in water; conditions: compared with crystalline forms A and L of Olaparib

| hygroscopicity (hygroscopicity) | solubility in various organic solvents and in water [2] | stability if exposed to the moisture in the air ([1]; exposed to the moisture in the air) | Structure (SMILES) | stability to air and heat ([1]; air and heat, long time (30 days)) | stability when exposed to a water-saturated environment ([1]; water-saturated environment) |
| --- | --- | --- | --- | --- | --- |
|  |  |  | O=C(c1cc(Cc2n[nH]c(=O)c3ccccc23)ccc1F)N1CCN(C(=O)C2CC2)CC1 [4-[3-(4-cyclopropanecarbonyl-piperazine-1-carbonyl)-4-fluorobenzyl]-2H-phthalazin-2-one] | stable to air and heat for a long time (30 days) | maintains its original physicochemical characteristics |
| not hygroscopic | better solubility | stable | O=C(c1cc(Cc2n[nH]c(=O)c3ccccc23)ccc1F)N1CCN(C(=O)C2CC2)CC1 [amorphous form of Olaparib, 4-[3-(4-cyclopropanecarbonyl-piperazine-1-carbonyl)-4-fluorobenzyl]-2H-phthalazin-2-one] |  |  |
